According to PubChem BioAssay (NCI):
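96-well plates; 48 h exposure; 5 concentrations. Endpoints by linear interpolation between flanking doses. Not reached: highest tested concentration assigned. The concentration for 50% growth inhibition is given as GI50. TGI: total growth inhibition.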

Key:
Assay in all cases: growth of human tumour cells (NCI), 48 h
TK-10 renal = test system: TK-10 renal
MDA-MB-435 = test system: MDA-MB-435
HS 578T breast = test system: HS 578T breast
MDA-MB-231 breast = test system: MDA-MB-231 breast
PC-3 prostate = test system: PC-3 prostate
HT29 colon = test system: HT29 colon
SW-620 colon = test system: SW-620 colon
UACC-62 melanoma = test system: UACC-62 melanoma
KM12 colon = test system: KM12 colon
SF-295 CNS = test system: SF-295 CNS

SMILES	GI50 (TK-10 renal) [µM]	TGI (TK-10 renal) [µM]	GI50 (MDA-MB-435) [µM]	TGI (MDA-MB-435) [µM]	GI50 (HS 578T breast) [µM]	TGI (HS 578T breast) [µM]	GI50 (MDA-MB-231 breast) [µM]	TGI (MDA-MB-231 breast) [µM]	GI50 (PC-3 prostate) [µM]	TGI (PC-3 prostate) [µM]	GI50 (HT29 colon) [µM]	TGI (HT29 colon) [µM]	GI50 (SW-620 colon) [µM]	TGI (SW-620 colon) [µM]	GI50 (UACC-62 melanoma) [µM]	TGI (UACC-62 melanoma) [µM]	GI50 (KM12 colon) [µM]	TGI (KM12 colon) [µM]	GI50 (SF-295 CNS) [µM]	TGI (SF-295 CNS) [µM]
CCNc1cc(-c2cccc(OC(F)(F)F)c2)nc2ccc(N3CCCC3)cc12	2.58	8.09	1.56	3.05	1.72	3.96	1.58	3.16	1.48	4.31	2.18	10.3	1.6	3.47	1.57	3.07	1.97	4.77	1.82	3.6
CC(C)CCC[C@@H](C)[C@H]1CC[C@H]2[C@@H]3CC[C@H]4C[C@@H](CCC=C(c5cc(Cl)c(O)c(C(=O)O)c5)c5cc(Cl)c(O)c(C(=O)O)c5)CC[C@]4(C)[C@H]3CC[C@]12C	–	> 100	–	> 100	–	> 100	–	> 100	–	> 100	–	> 100	–	> 100	–	> 100	–	> 100	–	> 100
Cc1nc(-c2ccccc2)n2nc(NCCCN3CCOCC3)ncc12	19.1	> 25	> 25	> 25	12.2	> 25	> 25	> 25	> 25	> 25	> 25	> 25	> 25	> 25	> 25	> 25	> 25	> 25	> 25	> 25
CC[n+]1oc(C(=O)c2ccc(Cl)cc2)c(-c2ccccc2)c1-c1ccccc1.[Cl][Fe]([Cl])([Cl])[Cl]	33.4	> 100	22.3	80.5	34.5	> 100	36.5	> 100	31.4	> 100	41.8	> 100	> 100	> 100	63.8	> 100	89.9	> 100	53.1	> 100
O=C(Nc1cc(C(F)(F)F)ccc1Cl)c1ccc(NC2=C(Cl)C(=O)N(Cc3ccccc3)C2=O)cc1	24.7	62.3	29.5	> 100	31.9	> 100	18.8	69.2	14.8	37.8	26.6	> 100	6.72	> 100	16.7	38.9	23.7	74.9	40.1	> 100
NCCSSCCN	–	> 100	–	> 100	–	> 100	–	> 100	–	> 100	–	> 100	–	> 100	–	> 100	–	> 100	–	> 100
COc1ccccc1C#Cc1ccccc1C#CCCCCO	34.5	> 100	20.2	41.8	17	55.4	12.4	27.1	15.4	42.2	8.58	29	19.2	46.4	16	30.7	23.1	57.8	22.1	45.1
CCCCCCCCCCCCCCCCCC1=NC(C)(C)CN1CC(C)O (stereo not given)	20.9	39	2.08	4.5	14	34.2	2.02	4.37	3.31	10.8	3.02	7.42	2.15	4.78	3.44	12.5	6.18	19.5	13	31.4
